{"source": "patent US20220370416A1", "about": "“COMPOUNDS AND METHODS FOR TARGETED DEGRADATION OF KRAS” (Arvinas Operations, Inc., priority 2020, published 2022)", "key": {"KRAS^G12D": {"biological_target": "T1, KRAS^G12D (Homo sapiens, UniProt P01116, G13D)", "T1 construct": "KRAS degradation was examined in HCT 116 cells, which harbor a heterozygous KRAS^G13D mutation; endogenous in cells; host or cells: HCT116", "assay": "KRAS^G12D degradation in HCT116 cells (specificity)", "assay_type": "cell-based", "conditions": "HCT116 cells (FIG. 3B)"}, "KRAS^G12C": {"biological_target": "KRAS^G12C (Homo sapiens, UniProt P01116, G12C)", "assay": "KRAS^G12C degradation by immunoblot in NCI-H23 cells", "assay_type": "cell-based", "set-up": "MRTX849-VHL bifunctional compounds engage and degrade endogenous KRAS^G12C in NCI-H2030 cells; endogenous in cells; host or cells: NCI-H2030, NCI-H358, MIA PaCa-2, SW1573, NCI-H23", "protocol": "NCI-H2030 (CRL-5914), MIA PaCa-2 (CRL-1420), NCI-H23 (CRL-5800), NCI-H358 (CRL-5807), and HCT-116 (CCL-247) cells were obtained from ATCC, expanded immediately, and frozen down. Vials were thawed and used within 20 passages. SW1573 cells were a gift from Arvinas and were handled in the same manner. NCI-H2030, NCI-H23, and NCI-H358 were cultured in RPMI (ATCC30-2001) supplemented with 10% FBS (Biological Industries; cat. no. S1480) and 1% Penicillin-Streptomycin (ThermoFisher; cat. no. 15140122). HCT-116 cells were maintained in high glucose DMEM (ThermoFisher; cat. no. 11965084) supplemented as above. MIA PaCa-2 cells were cultured in high glucose DMEM supplemented with 10% FBS, 2.5% horse serum (ThermoFisher; cat. no. 26050-088; lot 2109875), and 1% Penicillin-Streptomycin. SW1573 cells were maintained in DMEM/F12 Nutrient Mix with GlutaMAX supplement (ThermoFisher; cat. no. 10565018) with 10% FBS and 1% Penicillin-Streptomycin added. DPBS (ThermoFisher; cat. no. 14190250) was used to wash cells and 0.25% Trypsin-EDTA (ThermoFisher; cat. no. […]) was used to detach cells for passaging. […] The VHL ligand was generously provided by Arvinas.\nBetween 2.5×10^5 and 6.0×10^5 cells were seeded into 6-well plates (Corning; cat. no. 353046). The next day, media was removed and cells were treated with 2.5 μM LC-2 for 1, 2, 4, 8, 12, or 24 hours. […] For 24-hour time course experiments, cells were treated at the indicated times and concurrently lysed in RIPA buffer supplemented as described previously. For longer time course experiments and time courses in which cells were treated with LC-2 or LC-2 Epimer, cells were concurrently treated with either compound, then lysed by scraping in RIPA buffer at the indicated time points.\nBetween 2.5×10^5 and 5.0×10^5 cells were seeded into 6-well plates. The next day cells were pretreated with DMSO, 500 μM or 1 mM VHL ligand, 1 μM epoxomicin, 1 μM […], or 100 nM […] bafilomycin A1 for 1 hour. Media was then removed and cells were treated with DMSO, 2.5 μM LC-2 plus DMSO, 2.5 μM LC-2 Epimer plus DMSO, or co-treated with 2.5 μM LC-2 and the corresponding competitor/inhibitor. H2030 cells were treated for 4 hours and H23 cells were treated for 24 hours, after which cells were lysed by scraping in RIPA buffer supplemented as described previously.\nCell lysates were clarified at 21000×g for 15 mins at 4° C. Protein levels were quantified using a 50:1 mixture of bicinchoninic acid solution (Millipore Sigma; cat. no. B9643) and 4% (w/v) copper(II) sulfate solution (Millipore Sigma; cat. no. C2284) incubated at 37° C. for 30 mins. Absorbance values at 560 nm were read on an EnVision 2101 Multilabel Reader (PerkinElmer). Proteins were separated using 26 well Criterion TGX precast 4-15% (cat. no. 5671085) or 8-16% (cat. no. 5671105) gradient midi gels. After separation, proteins were transferred to nitrocellulose or PVDF membranes at 76 V for 2 hours at 4° C. Blots were then blocked in 5% milk in tris-buffered saline with Tween-20 (TBST; 20 mM Tris, 150 mM NaCl, 0.02% Tween-20). After blocking, blots were incubated in primary antibody overnight (12-18 hours) at 4° C. or for 2 hours at room temperature with mild agitation at the manufacturer's indicated dilution in either 5% milk or 5% BSA in TBST. Blots were then washed thrice with TBST for 5 mins at room temperature. After washing, blots were incubated with 1:5,000-1:10,000 of donkey anti-rabbit (GE Life Sciences; NA934) or sheep anti-mouse (GE Life Sciences; NA931) secondary antibody diluted in 5% milk for 1 hour at room temperature with mild agitation. Blots were again washed thrice with TBST for 5 mins. Chemiluminescent signal was generated using Amersham ECL Prime Western Blotting Detection Reagant (GE Life Sciences; cat. no. RPN2232) or SuperSignal West Femto Maximum Sensitivity Substrate (ThermoFisher; cat. no. 34095). Images were obtained using a Bio-Rad ChemiDoc Imager."}}, "data": [{"smiles": "C=C(F)C(=O)N1CCN(c2nc(OC[C@@H]3CCCN3CCCOCCC(=O)N[C@H](C(=O)N3C[C@H](O)C[C@H]3C(=O)NCc3ccc(-c4scnc4C)cc3)C(C)(C)C)nc3c2CCN(c2cccc4cccc(Cl)c24)C3)C[C@@H]1CC#N", "note": "[LC-2, (2S,4R)-1-((S)-2-(3-(3-((S)-2-(((7-(8-chloronaphthalen-1-yl)-4-((S)-3-(cyanomethyl)-4-(2-fluoroacryloyl)piperazin-1-yl)-5,6,7,8-tetrahydropyrido[3,4-d]pyrimidin-2-yl)oxy)methyl)pyrrolidin-1-yl)propoxy)propanamido)-3,3-dimethylbutanoyl)-4-hydroxy-N-(4-(4-methylthiazol-5-yl)benzyl)pyrrolidine-2-carboxamide]", "values": [{"measurement": "degradation of KRAS^G12D", "setting": "KRAS^G12D", "result": "does not degrade KRAS^G12D"}, {"measurement": "Dmax", "setting": "KRAS^G12C; NCI-H23", "result": "> 90", "unit": "%"}, {"measurement": "KRAS, two-way ANOVA significance vs DMSO", "setting": "KRAS^G12C; NCI-H23, 0.25 μM, FIG. 9B", "result": "* (* p < 0.05)"}, {"measurement": "duration of KRAS degradation", "setting": "KRAS^G12C; NCI-H23, 2.5 μM", "result": "sustained up to 72 hours"}, {"measurement": "time at which KRAS^G12C began to rebound", "setting": "KRAS^G12C; NCI-H23, 2.5 μM", "result": 72, "unit": "h"}, {"measurement": "time to maximal KRAS degradation", "setting": "KRAS^G12C; NCI-H23, 2.5 μM, 6, 24, 48, 72 hours", "result": "≤ 24", "unit": "h"}, {"measurement": "KRAS, two-way ANOVA significance vs DMSO", "setting": "KRAS^G12C; NCI-H23, 2.5 μM, 6 hours, FIG. 10B", "result": "** (** p < 0.01)"}, {"measurement": "KRAS, two-way ANOVA significance vs DMSO", "setting": "KRAS^G12C; NCI-H23, 2.5 μM, 24 hours, FIG. 10B", "result": "**** (**** p < 0.001)"}, {"measurement": "KRAS, two-way ANOVA significance vs DMSO", "setting": "KRAS^G12C; NCI-H23, 10 μM, FIG. 9B", "result": "N.S."}, {"measurement": "DC50", "setting": "KRAS^G12C; NCI-H23, heterozygous KRAS^G12C", "result": "0.25 ± 0.08", "unit": "µM"}, {"measurement": "KRAS degradation", "setting": "KRAS^G12C; NCI-H23 cells, heterozygous", "result": "> 50", "unit": "%"}]}]}
